Measurements taken from patent US20220356174A1, “PYRIDIN-2-ONE COMPOUNDS USEFUL AS SMARCA2 ANTAGONISTS” (Epizyme, Inc., priority 2018, published 2022).
Marks after values point to notes of the source that are not given here.

Test system: A549 subcutaneous xenograft
Assay: Efficacy study in subcutaneous A549 xenograft model (tumor volume, tumor weight, TGI)
Format: in vivo, BALB/c nude mice
Settings: for Volume-based TGI(%) / Weight-based TGI(%): Day 21, P < 0.001
Description: The efficacy of compound 82c was studied in vivo for the treatment of A549 subcutaneous xenograft model in BALB/c nude mice. Seventy-five BALB/c nude female mice were injected cell A549 at 1×10^7 per mouse.
Fifty mice were selected and assigned into five groups using randomized block design based upon their tumor volumes and 10 mice per group. The 5 groups were treated p.o. with vehicle (0.5% NaCMC 0.1% Tween pH4), compound 82c 5 mg/kg BIDx21, 12.5 mg/kg BIDx10/QDx11, 25 mg/kg BIDx7/QDx14 and 50 mg/kg QDx10/3 days off/30 mg/kg QDx8.
All mice from 12.5 mg/kg BID were adjusted from BID to QD from treatment Day 11 until to the end of the study. #36˜#40 mice from group 25 mg/kg BID were compound administration holiday due to mice body weight loss. All mice from group 25 mg/kg BID were adjusted from BID to QD from treatment Day 8. All mice from group 50 mg/kg QD were compound administration holiday from Day 11 to Day 13 due to mice body weight loss and this group was adjusted from 50 mg/kg to 30 mg/kg until the end of the study.
Tumor Inoculation. Each mouse was inoculated subcutaneously at the right flank with A549 tumor cells (1×10^7 cells/mouse) in 0.2 mL of base media (F12K) for tumor development. The treatments were started when the tumor size reached 126.94 mm^3 for the tumor efficacy study (Day 14 post inoculation). Fifty tumor-bearing mice were block randomized into 5 groups with 10 mice in each.
Tumor Measurements and Endpoints. The major endpoint was tumor growth delay or cure. Tumor size was measured twice weekly in two dimensions using a caliper, and the volume was expressed in mm^3 using the formula: V=0.5 a×b^2 where a and b were the long and short diameters of the tumor, respectively. The tumor size was then used for calculations of T/C (%) values. T/C (%) was calculated according to the following equation: T/C (%)=TRTV/CRTV×[…] TRTV=TVtreatment-Dn/TVtreatment-D1, CRTV=TVcontrol-Dn/TVcontrol-D1, T/C (%)<42%, it was considered to be effective. The tumor size was then used for calculations of TGI (%) values. TGI (%) was calculated according to the following equation: TGI (%)=(1−(TVTreatment/Dx−TVTreatment/D1)/(TVControl/Dx−TVControl/D1))×100%, TGI[…]58 means this medicine is effective. The tumor weight was then used for calculations of TGI (%) values. TGI (%) was calculated according to the following equation: TGI (%)=(1−TWTreatment/TWControl)×100%
Statistical Analysis. Summary statistics, including mean and the standard error of the mean (SEM), were provided for the tumor volumes of each group at each time point. Statistical analyses of difference in tumor volumes among the groups were conducted on Day 21 after the last dose. Statistical analysis of difference in tumor volume and tumor weight among the groups was conducted. All data was analyzed using GraphPad Prism software. P<0.05 was considered to be statistically significant. A two-way ANOVA combined with Bonferroni post-test was performed to compare tumor volumes among vehicle and all treatment groups. A one-way ANOVA combined with Dunnett's Multiple Comparison Test to compare tumor weight among vehicle and all treatment groups.

[1] = 50 mg/kg QD×10, 3 days off, 30 mg/kg QD×8, p.o.

N#Cc1cc(C(=O)Nc2cc(F)c(=O)n(CC(F)F)c2)sc1C(F)(F)F [Compound 82c, 4-cyano-N-[1-(2,2-difluoroethyl)-5-fluoro-6-oxopyridin-3-yl]-5-(trifluoromethyl)thiophene-2-carboxamide]
Tumor Volume (mm^3), Day 21 (5 mg/kg BID×21, p.o.): 737.75 ± 78.79 mm^3
Tumor Weight (g), Day 21 (5 mg/kg BID×21, p.o.): 0.773 ± 0.052 g
Volume-based TGI(%) (5 mg/kg BID×21, p.o.): 57.01* %
Weight-based TGI(%) (5 mg/kg BID×21, p.o.): 47.23* %
Tumor Volume (mm^3), Day 21 (12.5 mg/kg BID×10 QD×11, p.o.): 579.14 ± 59.39 mm^3
Tumor Weight (g), Day 21 (12.5 mg/kg BID×10 QD×11, p.o.): 0.609 ± 0.063 g
Volume-based TGI(%) (12.5 mg/kg BID×10 QD×11, p.o.): 68.31* %
Weight-based TGI(%) (12.5 mg/kg BID×10 QD×11, p.o.): 58.44* %
Tumor Volume (mm^3), Day 21 (25 mg/kg BID×7 QD×14, p.o.): 469.53 ± 70.97 mm^3
Tumor Weight (g), Day 21 (25 mg/kg BID×7 QD×14, p.o.): 0.509 ± 0.077 g
Volume-based TGI(%) (25 mg/kg BID×7 QD×14, p.o.): 75.87* %
Weight-based TGI(%) (25 mg/kg BID×7 QD×14, p.o.): 65.26* %
Tumor Volume (mm^3), Day 21 [1]: 461.87 ± 60.61 mm^3
Tumor Weight (g), Day 21 [1]: 0.496 ± 0.058 g
Volume-based TGI(%) [1]: 76.56* %
Weight-based TGI(%) [1]: 66.17* %
